Results taken from patent publication US20240041877A1, “DOSAGE REGIME AND METHOD FOR TREATING PULMONARY ARTERIAL HYPERTENSION” (Altavant Sciences GmbH, priority 2019, published 2024).

Assay: Part 2 (MAD): plasma pharmacokinetics after BID oral KAR5585 for 14 days (incl. accumulation ratios and dose proportionality)
[1] = 200 mg/dose Fed Cohort 3, Day 1 PM, Geo. Mean
[2] = 200 mg/dose Fed Cohort 3, Day 1 PM, Mean
[3] = 200 mg/dose Fed Cohort 3, Day 7 AM, Geo. Mean
[4] = 200 mg/dose Fed Cohort 3, Day 7 AM, Mean
[5] = 200 mg/dose Fed Cohort 3, Day 7 PM, Geo. Mean
[6] = 200 mg/dose Fed Cohort 3, Day 7 PM, Mean
[7] = 200 mg/dose Fed Cohort 3, Day 14, Geo. Mean
[8] = 200 mg/dose Fed Cohort 3, Day 14, Mean
[9] = 400 mg/dose Fasted Cohort 4, Day 1 AM, Geo. Mean
[10] = 400 mg/dose Fasted Cohort 4, Day 1 AM, Mean
[11] = 400 mg/dose Fasted Cohort 4, Day 1 PM, Geo. Mean
[12] = 400 mg/dose Fasted Cohort 4, Day 1 PM, Mean
[13] = 400 mg/dose Fasted Cohort 4, Day 7 AM, Geo. Mean
[14] = 400 mg/dose Fasted Cohort 4, Day 7 AM, Mean
[15] = 400 mg/dose Fasted Cohort 4, Day 7 PM, Geo. Mean
[16] = 400 mg/dose Fasted Cohort 4, Day 7 PM, Mean
[17] = 400 mg/dose Fasted Cohort 4, Day 14, Geo. Mean
[18] = 400 mg/dose Fasted Cohort 4, Day 14, Mean
[19] = power model, PK Day 1 (AM), 100 to 400 mg KAR5585 repeat oral doses, fed
[20] = power model, PK Day 7 (AM), 100 to 400 mg KAR5585 repeat oral doses, fed
[21] = power model, PK Day 14 (AM), 100 to 400 mg KAR5585 repeat oral doses, fed

Text: Food effect was to be evaluated in Part 1, Period 2.
Pharmacokinetic data were to be summarized descriptively.

SMILES: CCOC(=O)[C@@H]1CC2(CCN(c3cc(O[C@H](c4ccc(Cl)cc4-c4ccccc4)C(F)(F)F)nc(N)n3)CC2)CN1 [KAR5585, (S)-ethyl 8-(2-amino-6-((R)-1-(5-chloro-[1,1′-biphenyl]-2-yl)-2,2,2-trifluoroethoxy)pyrimidin-4-yl)-2,8-diazaspiro[4.5]decane-3-carboxylate]
- C12 [1]: 9.57 ng/mL
- CL/F [1]: 493 L/h
- Cmax [1]: 85.4 ng/mL
- Cmax/D [1]: 0.427 (ng/mL)/mg
- t1/2 [1]: 4.24 h
- AUC0-12 [2]: 344 ng·h/mL
- AUC0-24 [2]: 601 ng·h/mL
- AUC0-24/D [2]: 1.5 (hr*ng/mL)/mg
- AUC0-∞ [2]: 417 ng·h/mL
- C12 [2]: 9.92 ng/mL
- CL/F [2]: 507 L/h
- Cmax [2]: 90.9 ng/mL
- Cmax/D [2]: 0.455 (ng/mL)/mg
- t1/2 [2]: 4.34 h
- AUC0-12 [3]: 217 ng·h/mL
- AUC0-∞ [3]: 256 ng·h/mL
- C12 [3]: 7.36 ng/mL
- CL/F [3]: 924 L/h
- Cmax [3]: 45.6 ng/mL
- Cmax/D [3]: 0.228 (ng/mL)/mg
- t1/2 [3]: 4.21 h
- AUC0-12 [4]: 230 ng·h/mL
- C12 [4]: 7.71 ng/mL
- CL/F [4]: 978 L/h
- Cmax [4]: 48.8 ng/mL
- Cmax/D [4]: 0.244 (ng/mL)/mg
- t1/2 [4]: 4.30 h
- Tmax (200 mg/dose Fed Cohort 3, Day 7 AM, Median): 3.0 h
- AUC0-12 [5]: 201 ng·h/mL
- AUC0-24 [5]: 414 ng·h/mL
- AUC0-24/D [5]: 1.03 (hr*ng/mL)/mg
- AUC0-∞ [5]: 289 ng·h/mL
- C12 [5]: 11.3 ng/mL
- CL/F [5]: 869 L/h
- Cmax [5]: 39.1 ng/mL
- Cmax/D [5]: 0.195 (ng/mL)/mg
- t1/2 [5]: 5.58 h
- AUC0-12 [6]: 207 ng·h/mL
- AUC0-24 [6]: 431 ng·h/mL
- AUC0-24/D [6]: 1.08 (hr*ng/mL)/mg
- AUC0-∞ [6]: 290 ng·h/mL
- C12 [6]: 12.2 ng/mL
- CL/F [6]: 890 L/h
- Cmax/D [6]: 0.213 (ng/mL)/mg
- t1/2 [6]: 6.20 h
- AUC0-24 [7]: 199 ng·h/mL
- AUC0-24/D [7]: 0.993 (hr*ng/mL)/mg
- C24 [7]: BLQ
- CL/F [7]: 1130 L/h
- Cmax/D [7]: 0.217 (ng/mL)/mg
- AUC0-12 [8]: 188 ng·h/mL
- AUC0-24 [8]: 212 ng·h/mL
- AUC0-24/D [8]: 1.06 (hr*ng/mL)/mg
- AUC0-∞ [8]: 216 ng·h/mL
- C24 [8]: BLQ
- CL/F [8]: 1200 L/h
- Cmax [8]: 48.8 ng/mL
- Cmax/D [8]: 0.244 (ng/mL)/mg
- Mean CL/F, Day 1 (400 mg KAR5585 BID, fed): 1730 L/h
- Mean steady-state CL/F, Day 14 (400 mg KAR5585 BID, fed): 1140 L/h
- AUC0-12 [9]: 253 ng·h/mL
- AUC0-∞ [9]: 272 ng·h/mL
- C12 [9]: 7.44 ng/mL
- CL/F [9]: 1470 L/h
- Cmax [9]: 74.0 ng/mL
- Cmax/D [9]: 0.185 (ng/mL)/mg
- t1/2 [9]: 3.00 h
- AUC0-12 [10]: 281 ng·h/mL
- C12 [10]: 7.49 ng/mL
- CL/F [10]: 1730 L/h
- Cmax [10]: 81.8 ng/mL
- Cmax/D [10]: 0.205 (ng/mL)/mg
- AUC0-12 [11]: 501 ng·h/mL
- AUC0-24/D [11]: 0.950 (hr*ng/mL)/mg
- AUC0-∞ [11]: 633 ng·h/mL
- C12 [11]: 16.6 ng/mL
- CL/F [11]: 632 L/h
- Cmax/D [11]: 0.276 (ng/mL)/mg
- t1/2 [11]: 4.18 h
- AUC0-12 [12]: 528 ng·h/mL
- AUC0-24/D [12]: 1.01 (hr*ng/mL)/mg
- AUC0-∞ [12]: 657 ng·h/mL
- C12 [12]: 17.1 ng/mL
- CL/F [12]: 662 L/h
- Cmax [12]: 124 ng/mL
- Cmax/D [12]: 0.310 (ng/mL)/mg
- t1/2 [12]: 4.33 h
- AUC0-12 [13]: 473 ng·h/mL
- AUC0-∞ [13]: 577 ng·h/mL
- C12 [13]: 15.1 ng/mL
- CL/F [13]: 846 L/h
- Cmax [13]: 93.3 ng/mL
- Cmax/D [13]: 0.228 (ng/mL)/mg
- t1/2 [13]: 4.65 h
- AUC0-12 [14]: 483 ng·h/mL
- AUC0-∞ [14]: 588 ng·h/mL
- C12 [14]: 15.5 ng/mL
- CL/F [14]: 865 L/h
- Cmax [14]: 95.9 ng/mL
- Cmax/D [14]: 0.240 (ng/mL)/mg
- t1/2 [14]: 4.90 h
- AUC0-12 [15]: 394 ng·h/mL
- AUC0-24/D [15]: 1.09 (hr*ng/mL)/mg
- AUC0-∞ [15]: 534 ng·h/mL
- C12 [15]: 20.1 ng/mL
- CL/F [15]: 954 L/h
- Cmax [15]: 63.4 ng/mL
- Cmax/D [15]: 0.158 (ng/mL)/mg
- t1/2 [15]: 4.92 h
- AUC0-12 [16]: 404 ng·h/mL
- AUC0-24 [16]: 887 ng·h/mL
- AUC0-24/D [16]: 1.11 (hr*ng/mL)/mg
- AUC0-∞ [16]: 538 ng·h/mL
- C12 [16]: 20.8 ng/mL
- CL/F [16]: 969 L/h
- Cmax/D [16]: 0.172 (ng/mL)/mg
- t1/2 [16]: 4.93 h
- AUC0-12 [17]: 359 ng·h/mL
- AUC0-24 [17]: 433 ng·h/mL
- AUC0-24/D [17]: 1.08 (hr*ng/mL)/mg
- AUC0-∞ [17]: 465 ng·h/mL
- C12 [17]: 11.0 ng/mL
- CL/F [17]: 1110 L/h
- Cmax [17]: 85.3 ng/mL
- Cmax/D [17]: 0.213 (ng/mL)/mg
- t1/2 [17]: 6.08 h
- AUC0-12 [18]: 366 ng·h/mL
- AUC0-24 [18]: 444 ng·h/mL
- AUC0-24/D [18]: 1.11 (hr*ng/mL)/mg
- CL/F [18]: 1140 L/h
- Cmax/D [18]: 0.222 (ng/mL)/mg
- Tmax (400 mg/dose Fasted Cohort 4, Day 14, Median): 1.5 h
- steady-state plasma levels achieved by (BID oral KAR5585 for 14 days): ≤ 7 days
- Dose proportionality analysis, AUC0-12: Intercept estimate [19]: 0.969
- Dose proportionality analysis, AUC0-inf: Intercept estimate [19]: 0.817
- Dose proportionality analysis, Cmax: Intercept estimate [19]: 0.198
- Dose proportionality analysis, AUC0-12: Intercept estimate [20]: 1.51
- Dose proportionality analysis, Cmax: Intercept estimate [20]: 0.688
- Dose proportionality analysis, AUC0-12: Intercept estimate [21]: 2.37
- Dose proportionality analysis, Cmax: Intercept estimate [21]: 0.705
